Assay results reported in article PMC4965013, “Open Source Drug Discovery with the Malaria Box Compound Collection for Neglected Diseases and Beyond” (PLoS Pathogens, 2016).
Like-named read-outs stand apart in the source and are kept apart here.

Key:
P. falciparum Dd2 = assay: Malaria Sybr Green I Fluorescence assay Dd2 Horrocks; type: cell-based; conditions: Plasmodium falciparum, DD2, 48 h; read-out: P. falciparum Dd2 asexual blood stage EC50 Horrocks
Summary of the method: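 Dd2 asexual parasites started at 2% trophozoite-stage parasitaemia and 2% hematocrit; growth read by SYBR Green I fluorescence after 48 h. IC50 values taken from log dose-response curves.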

[1] = system: P. falciparum NF54 gametocytes stage IV/V; assay: Gametocyte PrestoBlue resazurin assay Mancama; type: cell-based; conditions: Plasmodium falciparum, NF54; 5µM; read-out: NF54 gametocyte Late Stage IV/V Resazurin %inhibition
B. caballi (USDA) = assay: B. caballi fluorescence-based growth assay; type: cell-based; conditions: Babesia caballi
Haemonchus contortus = Haemonchus contortus Scynexis; type: cell-based; conditions: 10µM
[2] = system: Onchocerca lienalis microfilariae; assay: Onchocerca lienalis microfilariae motility; type: cell-based; conditions: 12.5µM
Description: Column DW: Townson group (data presented first in this paper). Screening of Onchocerca lienalis microfilariae for motility inhibition in microplates. Methods: Microfilariae are obtained from samples of peri-umbilical skin of freshly slaughtered, naturally infected cattle in the UK. […] The results are then calculated as motility index scores and expressed as a percentage of the maximum obtainable. […] Merial) were immotile at the end of the trial.

Aedes aegypti = Aedes aegypti Scynexis; conditions: 10µM
Description: Supplement ppat.1005763.s002.xlsx, sheet "S1 Table Heat Map" | column: Aedes aegypti % dead 48hr 10 µM Synexis

[3] = system: Mycobacterium marinum in Acanthamoeba castellanii; assay: A. castellanii-M. marinum infection assay; type: cell-based; conditions: 10µM
Description: (§1) Columns FA-FC: Soldati Group (data presented first in this paper). M. marinum, D. discoideum, and Acathamoeba castellani assays. Each compound of the Malaria Box has been assayed at 10 µM in all three assays. First, the antibiotic activity was assayed directly against Mycobacterium marinum in its culture medium. Second, the toxicity and growth inhibitory effect of the compounds was assayed against the amoeba Dictyostelium discoideum in its culture medium. Finally, the “in cellulo” anti-infective activity of each compound was tested using the intracellular infection system Acanthamoeba castellanii-M. marinum. Values have been normalized using the DMSO carrier. For each assay, values have been normalized to 1.00 using the DMSO carrier, which has no detectable effect on D. discoideum nor M. marinum growth, while rifabutin was used as positive control for the antibiotic assay and the infection assay, as it abolishes M. marinum growth (normalized value under 0.10) in broth at 10 µM and intracellularly at 30 µM [150].

[4] = system: primary human hepatocytes; assay: MPCC hepatotoxicity (albumin, urea, morphology); type: cell-based; conditions: 10µM
[5] = Mouse oral PK single dose; type: in vivo; conditions: male, CD-1, mouse, plasma, 140 umol/kg; 140 μmol/kg oral
Description: Columns GD-GJ: Wuxi Inc. data for MMV (data presented first in this paper) PK/DMPK Parameters: Fasted animals (Male CD-1 mouse, 7-9 weeks age, 30±10 g, n=3) obtained from an approved vendor (SLAC Laboratory Animal Co. Ltd., Shanghai, China or Sino-British SIPPR/BK Laboratory Animal Co. Ltd Shanghai, China) were administered with a single oral dose (140 μmol/kg) using DMSO: 1% HPMC (5:95) as a vehicle. Blood sampling was performed via the submandibular or saphenous vein (t=0.083, 0.25, 1, 2, 4, 6 and 9 h) and transferred into microcentrifuge tubes containing Sodium Heparin (1,000 IU/ml) as anti-coagulant placed on wet ice until processed for plasma by centrifugation at approximately 4°C, 3000×g for 15 min. Plasma samples were stored in polypropylene tubes, quick frozen over dry ice and kept at -70±10°C until LC/MS/MS analysis. LC/MS/MS methods for the quantitative determination compounds plasma levels were developed with an internal standard. […] (Phoenix WinNonlin, version 6.2.1, Pharsight, Mountain View, CA) and expressed as Cmax & AUC0-last. […] AUC0-last is the area under the curve expressed as >12 h*μM (Yes or No). Plasma protein binding assay (PPB) (CD-1 mouse and human) expressed as <95% bound, >95% bound, or >99% bound. Kinetic Solubility at pH 7.4 was determined by liquid chromatography/chemiluminescence nitrogen detection (LC/CLND) and was scored as greater than 20µM (Yes or No). hERG inhibition was measured at 11µM by the QPatch- HT system and is expressed as “Yes” if greater than 45% inhibited at 11µM and “No” if less than or equal to 45% inhibited at 11µM. As part of the Drug-Drug Interaction studies (DDI issues), 5 human and 1 mouse CYP isoforms (1A2, 2C9, 2C19, 2D6, 3A4-M, 3A4-T) were tested for inhibition assay at 10 µM. […] Otherwise DDI issues were scored as “No”. Positive and negative controls were run for each assay (Table 1).

[6] = system: P. falciparum NF54 GFP-Pfs16 gametocytes stage IV-V; conditions: ref [64], cited from earlier work
[7] = system: P. falciparum NF54 gametocytes stage I-V; parameters: method as in ref [58, 65] (a number printed in a supplementary file, which may have a reference list of its own: not looked up in the article's list); conditions: 12.5µM; ref [58, 65]; cited from earlier work
[8] = system: Perkinsus marinus trophozoites; parameters: method as in ref [96] (a number printed in a supplementary file, which may have a reference list of its own: not looked up in the article's list); conditions: 20µM; ref [96]; cited from earlier work
[9] = system: HIV-1 JR-FL or HIV-1 NL4-3 pseudoviruses; assay: HIV-1 pseudovirus infection luciferase; type: cell-based; conditions: Human immunodeficiency virus 1, HXB2 / NL43, read-out: HIV HXB2 % inhibition rep2 in U87 Luc
Chromera velia = Chromera velia flagellation motility assay; conditions: 1µM
Mycobacterium marinum = assay: M. marinum antibiotic assay; type: cell-based; conditions: 10µM
Description: as §1

[10] = system: P. falciparum W2 apicoplast; conditions: 5µM compound; ref [54]; cited from earlier work

SMILES	EC50 (P. falciparum Dd2) [µM]	inhibition at 5 µM [1] [%]	EC50 (B. caballi (USDA)) [µM]	Haemonchus contortus 96hr % dead (Haemonchus contortus) [%]	Onchocerca lienalis % motility [2] [%]	Aedes aegypti % dead 48hr (Aedes aegypti) [%]	Mycobacterium marinum growth in Acanthamoeba castellanii DMSO=1 Infection Assay [3]	Human hepatocyte Urea synthesis, 1.0 normal [4]	Human hepatocyte albumin synthesis, 1.0 normal [4]	AUC [5] [µM·h]	Cmax [5] [nM]	gametocyte late stage (IV-V) GFP-MTR % inhibition ([6]; 0.5µM) [%]	gametocyte late stage (IV-V) GFP-MTR % inhibition ([6]; 5µM) [%]	gametocyte Stage I % inhibition [7] [%]	gametocyte Stage II % inhibition [7] [%]	gametocyte Stage III % inhibition [7] [%]	gametocyte Stage IV % inhibition [7] [%]	gametocyte Stage V % inhibition [7] [%]	Perkinsus marinus % growth [8] [%]	inhibition at 5 µM [9] [%]	other results
CCN1CCN(c2cc(C)c3cc(NC(=O)c4ccc(OC)c(OC)c4)ccc3n2)CC1 [MMV019074]	1.85	64	5.93	31	100	-20	0.93	0.58	0.51	< 12	> 1000	-6.56	4	66	32	-6	16	9	92	-69	Chromera velia 24 hr Flagellation (control standardized to ++; 0 = no flagella) (Chromera velia): +++; Chromera velia 72 hr Flagellation (control standardized to ++; 0 = no flagella) (Chromera velia): +++
CCOC(=O)c1cnc2ccc(OC)cc2c1NCc1ccccc1 [MMV665813]	4.89	0	5.9	1	100	-2	1.26	0.81	0.93	< 12	< 1000	10	2	68	46	-0.559	15	12	69	-1.56	Mycobacterium marinum relative growth DMSO=1 Antibiotic Assay (Mycobacterium marinum): 0.86; P. falciparum (W2) asexual growth: ratio w & wout 200µM IPP [10]: 0.72; Chromera velia 24 hr Flagellation (control standardized to ++; 0 = no flagella) (Chromera velia): +++; Chromera velia 72 hr Flagellation (control standardized to ++; 0 = no flagella) (Chromera velia): ++
CCN(CC)c1cc(C)c2cc(NC(=O)c3cccc(OC)c3)ccc2n1 [MMV000498]	2.77	70	9.33	100	100	19	0.94	0.65	0.57	> 12	> 1000	-0.167	87	84	43	12	1.56	-1.9	74	55	Mycobacterium marinum relative growth DMSO=1 Antibiotic Assay (Mycobacterium marinum): 0.98; P. falciparum (W2) asexual growth: ratio w & wout 200µM IPP [10]: 1.10; Chromera velia 24 hr Flagellation (control standardized to ++; 0 = no flagella) (Chromera velia): ++; Chromera velia 72 hr Flagellation (control standardized to ++; 0 = no flagella) (Chromera velia): +++
COc1ccc(C(=O)Nc2ccc3nc(N4CCCCC4)cc(C)c3c2)cc1OC [MMV019758]	0.614	18	0.51	75	100	6	1.23	0.66	0.58	> 12	> 1000	3.3	51	72	41	3.44	8	0.3	101	-36	Mycobacterium marinum relative growth DMSO=1 Antibiotic Assay (Mycobacterium marinum): 1.01; P. falciparum (W2) asexual growth: ratio w & wout 200µM IPP [10]: 0.79; Chromera velia 24 hr Flagellation (control standardized to ++; 0 = no flagella) (Chromera velia): +; Chromera velia 72 hr Flagellation (control standardized to ++; 0 = no flagella) (Chromera velia): ++
COc1cc2cc(C(=O)Nc3ccccc3)c(N)nc2cc1OC [MMV006767]	0.884	0	6.22	57	100	-3	1.18	1.00	0.82	> 12	> 1000	3	-13	96	56	26	12	23	44	51	Chromera velia 24 hr Flagellation (control standardized to ++; 0 = no flagella) (Chromera velia): +++; Chromera velia 72 hr Flagellation (control standardized to ++; 0 = no flagella) (Chromera velia): ++
